Measured values from the kinase profiling compilation of Christmann-Franck et al. (2016).

Experiments:
Experiment in all cases: SelectScreen, TR FRET
Conditions in all cases: compound 5.0 µM
[1] = tested on: ABL1 (human), P00519 [T315I]
DYRK3 (human) = DYRK3 (human) (UniProt O43781)
EGFR (human) = EGFR (human) (UniProt P00533)
EPHA8 (human) = EPHA8 (human) (UniProt P29322)
EPHB3 (human) = EPHB3 (human) (UniProt P54753)
FLT3 (human) = FLT3 (human) (UniProt P36888)
JAK2 JH1 JH2 (human) = JAK2 JH1 JH2 (human) (UniProt O60674)
[2] = tested on: LYN (human), P07948 [23-43 del]
MAP3K9 (human) = MAP3K9 (human) (UniProt P80192)
MAP4K2 (human) = MAP4K2 (human) (UniProt Q12851)
SGK2 (human) = SGK2 (human) (UniProt Q9HBY8)
SGK3 (human) = SGK3 (human) (UniProt Q96BR1)
Chain of SGK3 (human) (Q96BR1 whole entry, looked up): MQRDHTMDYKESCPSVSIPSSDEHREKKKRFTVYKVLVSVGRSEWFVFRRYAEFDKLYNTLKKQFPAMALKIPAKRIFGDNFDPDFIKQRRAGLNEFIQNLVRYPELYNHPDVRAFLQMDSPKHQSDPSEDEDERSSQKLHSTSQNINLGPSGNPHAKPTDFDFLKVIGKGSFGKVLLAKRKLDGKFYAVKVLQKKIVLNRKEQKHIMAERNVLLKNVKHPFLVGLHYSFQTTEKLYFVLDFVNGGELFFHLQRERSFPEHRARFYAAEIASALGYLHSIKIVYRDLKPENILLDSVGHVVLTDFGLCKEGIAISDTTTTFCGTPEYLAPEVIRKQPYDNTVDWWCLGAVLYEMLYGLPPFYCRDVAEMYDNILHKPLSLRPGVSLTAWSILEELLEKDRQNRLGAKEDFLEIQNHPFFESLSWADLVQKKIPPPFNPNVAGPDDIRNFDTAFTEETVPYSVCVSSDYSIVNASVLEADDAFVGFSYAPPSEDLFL

Chain of EPHB3 (human) (P54753 whole entry, looked up): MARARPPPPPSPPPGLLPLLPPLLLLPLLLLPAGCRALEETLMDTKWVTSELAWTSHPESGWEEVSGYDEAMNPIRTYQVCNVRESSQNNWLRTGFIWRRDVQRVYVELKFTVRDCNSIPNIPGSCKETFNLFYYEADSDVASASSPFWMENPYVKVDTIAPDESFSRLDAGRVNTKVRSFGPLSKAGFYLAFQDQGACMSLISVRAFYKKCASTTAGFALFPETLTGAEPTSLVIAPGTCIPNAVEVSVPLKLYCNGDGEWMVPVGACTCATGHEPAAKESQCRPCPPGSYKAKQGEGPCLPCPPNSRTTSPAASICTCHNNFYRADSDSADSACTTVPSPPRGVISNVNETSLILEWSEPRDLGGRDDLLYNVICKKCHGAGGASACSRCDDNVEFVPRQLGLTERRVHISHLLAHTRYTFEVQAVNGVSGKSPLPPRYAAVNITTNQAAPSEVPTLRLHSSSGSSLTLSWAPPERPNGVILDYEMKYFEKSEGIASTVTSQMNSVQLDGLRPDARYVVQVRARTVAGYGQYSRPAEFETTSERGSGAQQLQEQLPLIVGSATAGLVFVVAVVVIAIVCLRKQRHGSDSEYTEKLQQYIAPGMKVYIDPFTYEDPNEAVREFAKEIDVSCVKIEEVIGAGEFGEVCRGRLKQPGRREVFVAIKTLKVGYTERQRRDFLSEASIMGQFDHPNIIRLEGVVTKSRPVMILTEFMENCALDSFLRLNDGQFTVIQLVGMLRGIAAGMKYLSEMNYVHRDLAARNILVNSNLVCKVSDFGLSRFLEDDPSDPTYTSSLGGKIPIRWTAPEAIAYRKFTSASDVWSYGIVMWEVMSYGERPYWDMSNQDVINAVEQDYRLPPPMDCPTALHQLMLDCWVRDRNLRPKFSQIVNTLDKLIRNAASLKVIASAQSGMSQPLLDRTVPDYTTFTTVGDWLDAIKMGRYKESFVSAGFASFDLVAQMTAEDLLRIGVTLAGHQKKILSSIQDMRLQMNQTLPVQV
Chain of LYN (human), P07948 [23-43 del] (P07948 whole entry, looked up, stated change not applied): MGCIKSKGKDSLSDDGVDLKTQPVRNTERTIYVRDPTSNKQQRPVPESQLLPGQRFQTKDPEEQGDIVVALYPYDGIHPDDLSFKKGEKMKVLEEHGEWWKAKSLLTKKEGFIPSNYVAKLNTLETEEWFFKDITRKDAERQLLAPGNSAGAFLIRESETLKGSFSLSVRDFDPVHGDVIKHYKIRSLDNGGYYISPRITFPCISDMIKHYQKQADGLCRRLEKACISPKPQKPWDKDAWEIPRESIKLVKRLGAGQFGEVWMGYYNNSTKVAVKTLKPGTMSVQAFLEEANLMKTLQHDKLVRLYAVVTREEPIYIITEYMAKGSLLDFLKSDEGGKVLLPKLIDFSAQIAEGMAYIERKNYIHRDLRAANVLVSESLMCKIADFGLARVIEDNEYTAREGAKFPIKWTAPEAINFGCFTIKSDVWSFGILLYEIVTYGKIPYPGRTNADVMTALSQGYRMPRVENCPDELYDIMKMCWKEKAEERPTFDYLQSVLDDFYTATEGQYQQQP
Chain of MAP3K9 (human) (P80192 whole entry, looked up): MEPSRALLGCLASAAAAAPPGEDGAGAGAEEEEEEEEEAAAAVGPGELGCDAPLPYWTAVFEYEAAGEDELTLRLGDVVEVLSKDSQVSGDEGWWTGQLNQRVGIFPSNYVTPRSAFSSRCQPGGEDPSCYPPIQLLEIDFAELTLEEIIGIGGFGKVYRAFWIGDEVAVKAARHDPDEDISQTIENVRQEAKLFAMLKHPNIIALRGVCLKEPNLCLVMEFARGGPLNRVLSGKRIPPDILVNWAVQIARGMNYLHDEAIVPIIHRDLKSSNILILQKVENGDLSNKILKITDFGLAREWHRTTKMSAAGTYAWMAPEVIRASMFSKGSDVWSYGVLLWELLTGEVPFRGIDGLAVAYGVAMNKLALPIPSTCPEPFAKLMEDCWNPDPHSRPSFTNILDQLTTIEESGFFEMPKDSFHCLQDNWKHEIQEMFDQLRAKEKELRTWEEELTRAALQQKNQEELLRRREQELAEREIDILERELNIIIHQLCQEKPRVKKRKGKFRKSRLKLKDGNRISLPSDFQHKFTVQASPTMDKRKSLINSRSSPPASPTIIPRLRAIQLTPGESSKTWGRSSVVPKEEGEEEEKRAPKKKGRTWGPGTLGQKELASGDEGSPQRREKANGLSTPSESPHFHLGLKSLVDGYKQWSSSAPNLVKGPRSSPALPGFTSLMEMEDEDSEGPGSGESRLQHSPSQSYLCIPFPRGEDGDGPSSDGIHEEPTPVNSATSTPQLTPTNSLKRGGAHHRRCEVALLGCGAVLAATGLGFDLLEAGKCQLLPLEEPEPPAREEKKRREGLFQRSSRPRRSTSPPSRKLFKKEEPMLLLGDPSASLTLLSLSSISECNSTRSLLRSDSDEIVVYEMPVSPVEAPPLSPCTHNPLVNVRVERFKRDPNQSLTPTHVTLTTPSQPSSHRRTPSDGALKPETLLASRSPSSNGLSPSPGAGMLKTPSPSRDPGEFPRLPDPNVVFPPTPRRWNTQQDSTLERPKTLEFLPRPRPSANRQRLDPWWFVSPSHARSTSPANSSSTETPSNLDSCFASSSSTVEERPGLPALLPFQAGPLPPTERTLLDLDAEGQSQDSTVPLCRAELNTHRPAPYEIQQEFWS
Chain of SGK2 (human) (Q9HBY8 whole entry, looked up): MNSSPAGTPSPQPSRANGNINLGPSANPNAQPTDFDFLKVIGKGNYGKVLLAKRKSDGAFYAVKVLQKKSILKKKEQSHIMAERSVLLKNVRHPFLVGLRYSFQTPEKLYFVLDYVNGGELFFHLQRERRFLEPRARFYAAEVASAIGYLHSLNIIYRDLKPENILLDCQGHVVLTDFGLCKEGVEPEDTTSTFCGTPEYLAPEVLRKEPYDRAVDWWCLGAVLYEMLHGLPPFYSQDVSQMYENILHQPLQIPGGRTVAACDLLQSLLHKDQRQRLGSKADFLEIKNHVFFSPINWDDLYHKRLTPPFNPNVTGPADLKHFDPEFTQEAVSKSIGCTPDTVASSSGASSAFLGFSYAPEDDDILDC
Chain of JAK2 JH1 JH2 (human) (O60674 whole entry, looked up): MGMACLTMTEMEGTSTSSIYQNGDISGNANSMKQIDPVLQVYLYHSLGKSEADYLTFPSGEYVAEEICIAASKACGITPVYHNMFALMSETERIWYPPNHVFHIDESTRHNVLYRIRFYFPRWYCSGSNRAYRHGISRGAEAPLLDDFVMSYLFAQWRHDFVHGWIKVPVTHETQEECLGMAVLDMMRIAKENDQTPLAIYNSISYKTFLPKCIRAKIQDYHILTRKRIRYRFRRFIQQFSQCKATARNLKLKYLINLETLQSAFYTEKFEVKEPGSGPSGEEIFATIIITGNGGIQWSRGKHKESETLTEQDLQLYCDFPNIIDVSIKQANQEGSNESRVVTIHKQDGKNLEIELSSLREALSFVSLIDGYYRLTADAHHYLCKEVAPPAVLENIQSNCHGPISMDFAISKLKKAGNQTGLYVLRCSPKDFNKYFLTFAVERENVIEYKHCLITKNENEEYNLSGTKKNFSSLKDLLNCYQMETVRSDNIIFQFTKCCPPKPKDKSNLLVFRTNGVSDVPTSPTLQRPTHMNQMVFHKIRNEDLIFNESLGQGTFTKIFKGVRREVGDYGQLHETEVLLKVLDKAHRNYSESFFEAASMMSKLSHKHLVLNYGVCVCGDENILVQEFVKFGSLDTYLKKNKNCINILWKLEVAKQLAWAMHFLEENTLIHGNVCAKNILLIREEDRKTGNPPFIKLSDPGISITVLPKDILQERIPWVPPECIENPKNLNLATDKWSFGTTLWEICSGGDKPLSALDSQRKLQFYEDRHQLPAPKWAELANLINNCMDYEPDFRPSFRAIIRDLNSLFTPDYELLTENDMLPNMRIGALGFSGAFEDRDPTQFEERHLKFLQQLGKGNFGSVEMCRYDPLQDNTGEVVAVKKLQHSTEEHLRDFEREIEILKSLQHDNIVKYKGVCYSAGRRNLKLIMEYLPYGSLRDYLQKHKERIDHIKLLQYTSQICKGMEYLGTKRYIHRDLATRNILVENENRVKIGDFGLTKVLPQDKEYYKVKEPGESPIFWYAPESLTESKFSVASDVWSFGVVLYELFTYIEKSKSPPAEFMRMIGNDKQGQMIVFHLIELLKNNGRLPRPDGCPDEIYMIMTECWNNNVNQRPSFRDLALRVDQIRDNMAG

`Nc1cc(C(F)(F)F)c(-c2cc(N3CCOCC3)nc(N3CCOCC3)n2)cn1` was tested, and the inhibition [1] was 3%, the inhibition (DYRK3 (human)) was 11% and the inhibition (EGFR (human)) was 3%. For the same compound, the inhibition (EPHA8 (human)) was 3%, the inhibition (EPHB3 (human)) was -1% and the inhibition (FLT3 (human)) was 18%. For the same compound, the inhibition (JAK2 JH1 JH2 (human)) was 18%, the inhibition [2] was 3% and the inhibition (MAP3K9 (human)) was 2%. It also gave an inhibition (MAP4K2 (human)) of 6%, an inhibition (SGK2 (human)) of 10% and an inhibition (SGK3 (human)) of 20%.
